Measured values published in PubChem BioAssay (NCI).
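Cultured in 96-well plates, cells were exposed to test compound for 48 hours across five concentrations. Abbreviation: GI50, concentration required for 50% inhibition of growth. The concentration for full growth arrest is given as TGI.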

Columns and labels:
Assay in all cases: growth of human tumour cells (NCI), 48 h
K-562 leukemia = system: K-562 leukemia
MDA-MB-231 breast = system: MDA-MB-231 breast
ACHN renal = system: ACHN renal
HOP-62 NSCLC = system: HOP-62 NSCLC
TK-10 renal = system: TK-10 renal
NCI-H23 lung = system: NCI-H23 lung
U251 CNS = system: U251 CNS
SF-268 CNS = system: SF-268 CNS
NCI/ADR-RES ovarian = system: NCI/ADR-RES ovarian
SNB-75 CNS = system: SNB-75 CNS

Row | Structure (SMILES) | TGI (K-562 leukemia) | TGI (MDA-MB-231 breast) | TGI (ACHN renal) | TGI (HOP-62 NSCLC) | TGI (TK-10 renal) | TGI (NCI-H23 lung) | TGI (U251 CNS) | TGI (SF-268 CNS) | TGI (NCI/ADR-RES ovarian) | TGI (SNB-75 CNS) | GI50 (MDA-MB-231 breast) | GI50 (TK-10 renal) | GI50 (SF-268 CNS)
1 | COC1(OC)c2occc2C(=N)c2ccc(=O)oc21 | > 100 µM | > 100 µM | > 100 µM | > 100 µM | > 100 µM | > 100 µM | > 100 µM | > 100 µM | – | – | – | – | –
2 | CCCCCCCCCCCCCCCCCCNc1ccn(C2OC(COP(=O)(O)OCC3OC(n4ccc(N)nc4=O)C(O)C3O)C(O)C2O)c(=O)n1 (centres undefined) | > 100 µM | > 100 µM | > 100 µM | > 100 µM | > 100 µM | > 100 µM | > 100 µM | > 100 µM | > 100 µM | > 100 µM | – | – | –
3 | C[C@H]1CC[C@@]2(OC1)O[C@H]1C[C@H]3[C@@H]4CC[C@@H]5C[C@@H](OC6OC(CO)C(O)C(O)C6OC6OC(CO)C(O)C(O)C6O)CC[C@]5(C)[C@H]4CC[C@]3(C)[C@H]1[C@@H]2C (some centres undefined) | 4.33 µM | 3.81 µM | 3.82 µM | 3.99 µM | 3.61 µM | 4.06 µM | 4 µM | 4.25 µM | 5.03 µM | 4.07 µM | – | – | –
4 | Cn1c(CNc2ccc(-c3n[nH]c(=S)n3C)cc2)n[nH]c1=S | > 100 µM | > 100 µM | > 100 µM | > 100 µM | > 100 µM | > 100 µM | > 100 µM | > 100 µM | > 100 µM | > 100 µM | – | – | –
5 | O=C(Nn1c(-c2ccccc2)nc2ccccc2c1=O)c1ccc(Cl)cc1 | > 100 µM | > 100 µM | > 100 µM | > 100 µM | > 100 µM | > 100 µM | > 100 µM | > 100 µM | > 100 µM | > 100 µM | – | – | –
6 | CCOC(=O)c1c(NC(=O)c2ccccc2)c(C#N)c2n1CCCCC2 | > 100 µM | > 100 µM | > 100 µM | > 100 µM | > 100 µM | > 100 µM | > 100 µM | > 100 µM | > 100 µM | > 100 µM | – | – | –
7 | C=CCC(CCC(C)=O)(C(=O)OCC)C(=O)OCC | > 100 µM | > 100 µM | > 100 µM | > 100 µM | > 100 µM | > 100 µM | > 100 µM | > 100 µM | > 100 µM | > 100 µM | – | – | –
8 | COc1ccc(-c2oc3cc(-c4cc5oc(-c6ccc(OC)cc6)c(-c6ccc(OC)cc6)c5cc4OC)c(OC)cc3c2-c2ccc(OC)cc2)cc1 | > 100 µM | > 100 µM | > 100 µM | > 100 µM | > 100 µM | > 100 µM | > 100 µM | > 100 µM | > 100 µM | > 100 µM | – | – | –
9 | CCN1CCC(O)(c2ccc([N+](=O)[O-])cc2)C(C(=O)c2ccc([N+](=O)[O-])cc2)C1 (centres undefined) | > 100 µM | 41.9 µM | 32 µM | > 100 µM | 32.4 µM | 36.4 µM | > 100 µM | 46 µM | > 100 µM | > 100 µM | – | – | –
10 | CCN1/C(=C/C#C/C(C)=C\c2sc3ccc(Cl)cc3[n+]2CC)Sc2ccc(Cl)cc21 | – | 19.7 µM | 14.8 µM | 29 µM | > 100 µM | – | 23.2 µM | 21.4 µM | 80.4 µM | 9.98 µM | – | – | –
11 | COC(=O)/C=C(\C(=O)OC)c1cc(C)c2cc(C(C)C)ccc(C)c1-2 | > 100 µM | > 100 µM | > 100 µM | > 100 µM | > 100 µM | > 100 µM | > 100 µM | > 100 µM | > 100 µM | – | – | – | –
12 | Cc1nc2sc3cccc(Cl)c3n2c(=O)c1N=Nc1ccc(Cl)cc1 | > 100 µM | > 100 µM | > 100 µM | > 100 µM | > 100 µM | > 100 µM | > 100 µM | > 100 µM | > 100 µM | > 100 µM | – | – | –
13 | O=C(NCCC1CNc2ccccc21)OCc1ccccc1 (centres undefined) | > 100 µM | > 100 µM | > 100 µM | > 100 µM | – | > 100 µM | > 100 µM | > 100 µM | > 100 µM | – | – | – | –
14 | CC1=NN(c2nc(N)nc(C(C)Cl)n2)C(C)(C)C1 (centres undefined) | > 100 µM | > 100 µM | > 100 µM | > 100 µM | > 100 µM | > 100 µM | > 100 µM | > 100 µM | > 100 µM | > 100 µM | – | – | –
15 | CN(NC1=NCCO1)c1ccc2ccccc2c1 | 66.1 µM | > 100 µM | > 100 µM | > 100 µM | > 100 µM | > 100 µM | > 100 µM | > 100 µM | > 100 µM | 74.7 µM | – | – | –
16 | COC(=O)c1c(C)cccc1/C=C1\Cc2ccc(C)c(C)c2C1=O | > 100 µM | > 100 µM | > 100 µM | > 100 µM | > 100 µM | > 100 µM | > 100 µM | > 100 µM | – | > 100 µM | – | – | –
17 | O=c1[nH]c(N/N=C\C(O)C(O)C(O)C(O)CO)nc2ccccc12 (centres undefined) | > 100 µM | > 100 µM | > 100 µM | > 100 µM | > 100 µM | > 100 µM | > 100 µM | > 100 µM | > 100 µM | > 100 µM | – | – | –
18 | Cc1ccc(N=N/C(=N/NC(=O)c2ccccc2)c2ccc(N(CCC#N)CCC#N)cc2C)cc1 | > 100 µM | > 100 µM | > 100 µM | > 100 µM | > 100 µM | > 100 µM | > 100 µM | > 100 µM | > 100 µM | > 100 µM | – | – | –
19 | O=C(c1ccc(Cl)cc1)N(C(=O)N1CCCCC1)c1ccccc1 | > 100 µM | > 100 µM | > 100 µM | – | – | > 100 µM | > 100 µM | > 100 µM | > 100 µM | – | – | – | –
20 | CSC(=O)/C=C1\SS/C(=C\C(=O)SC)S1 | > 100 µM | 4.85 µM | 10.2 µM | 20.4 µM | 15.5 µM | 27.6 µM | 6.03 µM | 6.72 µM | 8.71 µM | 10.5 µM | – | – | –
21 | CC(=O)c1ccc(N=NN2CCCC2)cc1 | > 100 µM | > 100 µM | > 100 µM | > 100 µM | > 100 µM | > 100 µM | > 100 µM | > 100 µM | > 100 µM | > 100 µM | – | – | –
22 | O=C1CC(c2cccc(Cl)c2)Nc2ccc(N3CCCC3)cc21 (centres undefined) | 0.017 µM | > 100 µM | > 100 µM | > 100 µM | > 100 µM | – | > 100 µM | > 100 µM | – | – | 0.433 µM | > 100 µM | 0.0417 µM
